From ChEMBL document CHEMBL1201862, “PubChem BioAssay data set” (2004)
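Growth conditions: 96-well plates. Treatment: test compound, 48 hours, 5 concentrations. Analysis: linear interpolation between bracketing concentrations; unreached endpoints set to highest concentration. The concentration for 50% growth inhibition is given as GI50.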 Calls of active or inactive are those of the source. No stated cut-off is given here; in the data, active = GI50 up to about 1.1 µM and inactive = higher.

Assays:
Test in all cases: growth of human tumour cells (NCI), 48 h
[1] = test system: HCT-15
[2] = test system: 786-0
[3] = test system: SK-MEL-28
[4] = test system: SK-OV-3
[5] = test system: PC-3
[6] = test system: SNB-19
[7] = test system: OVCAR-8
[8] = test system: T47D
[9] = test system: NCI/ADR-RES
[10] = test system: Hs-578T
[11] = test system: CCRF-CEM
[12] = test system: HOP-62
[13] = test system: SF-295
[14] = test system: U-251
[15] = test system: OVCAR-3
[16] = test system: DU-145
[17] = test system: NCI-H226
[18] = test system: NCI-H23

SMILES	GI50 [1]	GI50 [2]	GI50 [3]	GI50 [4]	GI50 [5]	GI50 [6]	GI50 [7]	GI50 [8]	GI50 [9]	GI50 [10]	GI50 [11]	GI50 [12]	GI50 [13]	GI50 [14]	GI50 [15]	GI50 [16]	GI50 [17]	GI50 [18]
COc1ccc(C(=CCC(C)C2CCC3[C@@H]4C(OC(C)=O)CC5CC(OC(C)=O)CC[C@]5(C)C4CC(OC(C)=O)[C@]23C)c2ccc(OC)cc2)cc1 (stereo partly drawn)	86.5 µM	> 100 µM (inactive)	83.8 µM (inactive)	> 100 µM (inactive)	19.5 µM (inactive)	> 100 µM (inactive)	> 100 µM (inactive)	41 µM (inactive)	80.7 µM (inactive)	> 100 µM (inactive)	27.1 µM (inactive)	> 100 µM (inactive)	> 100 µM (inactive)	> 100 µM (inactive)				
C=CC(Br)(CBr)CCC1OC1(C)C (stereo not drawn)		15.7 µM (inactive)	16.3 µM (inactive)	24.7 µM (inactive)	16.5 µM (inactive)	17.3 µM (inactive)			23.5 µM (inactive)	15 µM (inactive)	29.9 µM (inactive)	18.9 µM (inactive)	16.4 µM (inactive)	17 µM (inactive)	19.5 µM (inactive)	25.3 µM (inactive)	19.8 µM (inactive)	16.3 µM (inactive)
CC1(C)CC(=O)C(=CNC(=S)c2ccccc2)C(=O)C1	> 100 µM	> 100 µM (inactive)	> 100 µM (inactive)	> 100 µM (inactive)	> 100 µM (inactive)	> 100 µM (inactive)	> 100 µM (inactive)		> 100 µM (inactive)	> 100 µM (inactive)	27 µM (inactive)	> 100 µM (inactive)	> 100 µM (inactive)	> 100 µM (inactive)	> 100 µM (inactive)	> 100 µM (inactive)	> 100 µM (inactive)	> 100 µM (inactive)
COc1cc(/C=C2\C(=O)N(c3cccc(NC(C)=O)c3)C(c3ccccc3)S2(=O)=O)cc(OC)c1OC (stereo not drawn)	71.4 µM	88.5 µM (inactive)	91.2 µM (inactive)	> 100 µM (inactive)	42.6 µM (inactive)	> 100 µM (inactive)	48.2 µM (inactive)	34.7 µM (inactive)	94.6 µM (inactive)		30.3 µM (inactive)	> 100 µM (inactive)	50.9 µM (inactive)	59.8 µM (inactive)	56 µM (inactive)	> 100 µM (inactive)	67.6 µM (inactive)	79.4 µM (inactive)
COc1ccc(Cc2c(N)[nH]c(=O)[nH]c2=O)cc1	> 100 µM	> 100 µM (inactive)	> 100 µM (inactive)	> 100 µM (inactive)	> 100 µM (inactive)	> 100 µM (inactive)	> 100 µM (inactive)	> 100 µM (inactive)	> 100 µM (inactive)	> 100 µM (inactive)		> 100 µM (inactive)	> 100 µM (inactive)	> 100 µM (inactive)	> 100 µM (inactive)		> 100 µM (inactive)	> 100 µM (inactive)
N#C[BH2-][n+]1cn(C2CC(O)C(COP(=O)(O)OC3CC(n4c[n+]([BH2-]C#N)c5c(=O)[nH]c(N)nc54)OC3CO)O2)c2nc(N)[nH]c(=O)c21 (stereo not drawn)	> 100 µM	> 100 µM (inactive)	> 100 µM (inactive)		> 100 µM (inactive)	> 100 µM (inactive)	> 100 µM (inactive)	> 100 µM (inactive)	> 100 µM (inactive)		> 100 µM (inactive)	> 100 µM (inactive)	> 100 µM (inactive)	> 100 µM (inactive)	> 100 µM (inactive)	> 100 µM (inactive)	> 100 µM (inactive)	> 100 µM (inactive)
CC(=O)CC(=O)c1cc2c(=O)oc(C)cc2oc1=O	> 37.5 µM	> 37.5 µM (inactive)	> 37.5 µM (inactive)	> 37.5 µM (inactive)	> 37.5 µM (inactive)	> 37.5 µM (inactive)	> 37.5 µM (inactive)		> 37.5 µM (inactive)		> 37.5 µM (inactive)	> 37.5 µM (inactive)	> 37.5 µM (inactive)	> 37.5 µM (inactive)	> 37.5 µM (inactive)	> 37.5 µM (inactive)	> 37.5 µM (inactive)	> 37.5 µM (inactive)
O=C1CSC(c2c[nH]c3ccccc23)N1c1ccc(Cl)cc1Cl (stereo not drawn)	> 100 µM	> 100 µM (inactive)	> 100 µM (inactive)	> 100 µM (inactive)	> 100 µM (inactive)	> 100 µM (inactive)	> 100 µM (inactive)	> 100 µM (inactive)	> 100 µM (inactive)		> 100 µM (inactive)	> 100 µM (inactive)	> 100 µM (inactive)	> 100 µM (inactive)	> 100 µM (inactive)	> 100 µM (inactive)		> 100 µM (inactive)
CCOC(=O)c1c(N)sc2c1C(C(=O)OCC)CCC2 (stereo not drawn)	> 100 µM	> 100 µM (inactive)	> 100 µM (inactive)		68.1 µM (inactive)	> 100 µM (inactive)	> 100 µM (inactive)	66.5 µM (inactive)		> 100 µM (inactive)	> 100 µM (inactive)	> 100 µM (inactive)		> 100 µM (inactive)			> 100 µM (inactive)	> 100 µM (inactive)
COC(=O)c1ccc(CN2CCc3c([nH]c4ccccc34)C2CO)o1 (stereo not drawn)	> 10 µM	> 10 µM (inactive)	> 10 µM (inactive)	> 10 µM (inactive)	> 10 µM (inactive)		> 10 µM (inactive)	> 10 µM (inactive)			> 10 µM (inactive)	> 10 µM (inactive)	> 10 µM (inactive)		> 10 µM (inactive)	> 10 µM (inactive)		> 10 µM (inactive)
CC(C)(CC(=O)Nc1ccccc1)C(=O)O	> 100 µM	> 100 µM (inactive)	> 100 µM (inactive)	> 100 µM (inactive)	> 100 µM (inactive)	> 100 µM (inactive)	> 100 µM (inactive)	> 100 µM (inactive)	> 100 µM (inactive)		> 100 µM (inactive)	> 100 µM (inactive)	> 100 µM (inactive)	> 100 µM (inactive)	> 100 µM (inactive)	> 100 µM (inactive)	> 100 µM (inactive)	> 100 µM (inactive)
C[C@@](Br)(C(=O)O)[C@H](Br)C(=O)O	> 100 µM	> 100 µM (inactive)	> 100 µM (inactive)	> 100 µM (inactive)	> 100 µM (inactive)	> 100 µM (inactive)	> 100 µM (inactive)	> 100 µM (inactive)	> 100 µM (inactive)		> 100 µM (inactive)	> 100 µM (inactive)	> 100 µM (inactive)	> 100 µM (inactive)	> 100 µM (inactive)	> 100 µM (inactive)	> 100 µM (inactive)	> 100 µM (inactive)
COC(=O)C1=C(\c2ccccc2)c2ccccc2C(=O)N(C2CCCCC2)/C=C\1	24.1 µM	34.6 µM (inactive)	17.9 µM (inactive)	74.1 µM (inactive)	10.5 µM (inactive)	29 µM (inactive)	38.9 µM (inactive)		26.5 µM (inactive)		12 µM (inactive)	21.3 µM (inactive)	28 µM (inactive)	21 µM (inactive)	21.7 µM (inactive)	60 µM (inactive)	18.2 µM (inactive)	17.1 µM (inactive)
